Measured values reported in patent US20230023559A1, “ARYLMETHYLENE HETEROCYCLIC COMPOUNDS AS KV1.3 POTASSIUM SHAKER CHANNEL BLOCKERS” (D. E. Shaw Research, LLC, priority 2019, published 2023).

What was measured:
[1] = target: T1, Kv1.3 potassium channel (Homo sapiens, UniProt P22001); assay: Kv1.3 potassium channel blocker activity, automated whole-cell patch clamp (Patchliner); type: cell-based; settings: CHO-K1 cells stably expressing Kv1.3; whole cell current inhibition; read-out: Kv1.3_IC50
T1 construct: expressed in transfected cells
T1 sequence (P22001 whole entry): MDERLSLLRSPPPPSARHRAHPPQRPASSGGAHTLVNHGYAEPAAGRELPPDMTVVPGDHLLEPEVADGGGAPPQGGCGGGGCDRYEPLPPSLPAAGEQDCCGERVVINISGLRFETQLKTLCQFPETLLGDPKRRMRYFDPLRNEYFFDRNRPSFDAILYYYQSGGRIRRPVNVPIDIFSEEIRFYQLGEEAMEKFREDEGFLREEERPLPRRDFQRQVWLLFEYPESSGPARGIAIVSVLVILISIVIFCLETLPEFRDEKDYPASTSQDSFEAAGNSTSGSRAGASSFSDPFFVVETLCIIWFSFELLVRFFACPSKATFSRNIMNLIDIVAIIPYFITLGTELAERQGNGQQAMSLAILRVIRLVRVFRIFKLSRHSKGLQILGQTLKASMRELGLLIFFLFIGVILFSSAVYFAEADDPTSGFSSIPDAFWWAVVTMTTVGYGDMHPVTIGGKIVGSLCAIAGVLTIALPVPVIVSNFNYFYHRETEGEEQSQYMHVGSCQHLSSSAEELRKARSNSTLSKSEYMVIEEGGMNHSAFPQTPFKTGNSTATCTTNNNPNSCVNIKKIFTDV
Outline: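 CHO-K1 cells stably expressing Kv1.3, automated whole-cell patch clamp. Currents evoked by 100 ms steps from −90 mV holding to +40 mV at 0.1 Hz, sampled at 10 kHz unfiltered, P/4 leak subtraction; peak current inhibition measured, compound incubation ≤10 s between pulse trains.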

[2] = target: hERG channel (Homo sapiens, UniProt Q12809); assay: hERG electrophysiology, automated whole-cell patch clamp (Patchliner)
Chain of hERG channel (Q12809 whole entry): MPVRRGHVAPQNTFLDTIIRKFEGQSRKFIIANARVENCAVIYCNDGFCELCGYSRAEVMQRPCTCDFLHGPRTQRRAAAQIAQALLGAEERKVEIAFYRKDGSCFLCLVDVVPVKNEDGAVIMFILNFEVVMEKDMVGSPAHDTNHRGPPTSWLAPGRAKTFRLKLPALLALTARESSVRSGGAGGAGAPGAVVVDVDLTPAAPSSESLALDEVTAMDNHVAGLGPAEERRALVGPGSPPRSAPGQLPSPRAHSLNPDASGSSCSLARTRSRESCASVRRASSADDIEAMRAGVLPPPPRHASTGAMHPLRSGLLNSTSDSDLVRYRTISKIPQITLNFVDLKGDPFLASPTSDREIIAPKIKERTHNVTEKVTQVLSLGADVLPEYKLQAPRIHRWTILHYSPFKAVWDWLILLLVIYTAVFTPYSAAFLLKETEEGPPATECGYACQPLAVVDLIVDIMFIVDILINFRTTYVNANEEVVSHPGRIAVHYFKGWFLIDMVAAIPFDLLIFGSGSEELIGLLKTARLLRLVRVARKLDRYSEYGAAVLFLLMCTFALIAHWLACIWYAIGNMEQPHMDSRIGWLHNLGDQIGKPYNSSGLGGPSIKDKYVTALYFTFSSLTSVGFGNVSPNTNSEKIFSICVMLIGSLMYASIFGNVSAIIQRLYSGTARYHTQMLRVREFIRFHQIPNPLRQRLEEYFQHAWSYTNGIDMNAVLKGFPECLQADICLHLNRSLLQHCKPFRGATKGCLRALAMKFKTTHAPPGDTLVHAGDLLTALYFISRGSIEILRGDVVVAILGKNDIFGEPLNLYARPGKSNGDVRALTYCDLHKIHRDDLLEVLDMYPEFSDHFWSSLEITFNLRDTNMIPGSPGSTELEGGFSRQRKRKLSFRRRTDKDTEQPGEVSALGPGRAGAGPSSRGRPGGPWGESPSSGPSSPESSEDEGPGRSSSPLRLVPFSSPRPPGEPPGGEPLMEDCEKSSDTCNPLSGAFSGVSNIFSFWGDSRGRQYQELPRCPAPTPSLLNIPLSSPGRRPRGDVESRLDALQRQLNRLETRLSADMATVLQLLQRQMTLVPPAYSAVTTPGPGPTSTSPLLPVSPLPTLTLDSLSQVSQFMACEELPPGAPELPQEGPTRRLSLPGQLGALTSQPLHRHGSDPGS
Method: CHO-K1 cells stably expressing hERG were grown in Ham's F-12 Medium with Glutamine containing 10% heat-inactivated FBS, 1% Penicillin/Streptomycin, Hygromycin (100 μg/ml) and G418 (100 μg/ml). Cells were grown in culture flasks at 37° C. in a 5% CO2-humidified incubator.
The cells were bathed in an extracellular solution containing 140 mM NaCl, 4 mM KCl, 2 mM CaCl2), 1 mM MgCl2, 5 mM Glucose, 10 mM HEPES; pH adjusted to 7.4 with NaOH; 295-305 mOsm. The internal solution contained 50 mM KCl, 10 mM NaCl, 60 mM KF, 20 mM EGTA, 10 mM HEPES; pH adjusted to 7.2 with KOH; 285 mOsm. All compounds were dissolved in DMSO at 30 mM. Compound stock solutions were freshly diluted with external solution to concentrations of 30 nM, 100 nM, 300 nM, 1 μM, 3 μM, 10 μM, 30 μM and 100 μM. The highest content of DMSO (0.3%) was present in 100 μM.
The voltage protocol (see Table B) was designed to simulate voltage changes during a cardiac action potential with a 300 ms depolarization to +20 mV (analogous to the plateau phase of the cardiac action potential), a repolarization for 300 ms to −50 mV (inducing a tail current) and a final step to the holding potential of −80 mV. The pulse frequency was 0.3 Hz. Control (compound-free) and compound pulse trains for each compound concentration applied contained 70 pulses.
Whole cell current recordings and compound application were enabled by means of an automated patch clamp platform Patchliner (Nanion). EPC 10 patch clamp amplifier (HEKA) along with Patchmaster software (HEKA Elektronik Dr. Schulze GmbH) was used for data acquisition. Data were sampled at 10 kHz without filtering. Increasing compound concentrations were applied consecutively to the same cell without washouts in between.
AUC and PEAK values were obtained with Patchmaster (HEKA Elektronik Dr. Schulze GmbH). To determine IC50 the last single pulse in the pulse train corresponding to a given compound concentration was used. Obtained AUC and PEAK values in the presence of compound were normalized to control values in the absence of compound. Using Origin (OridinLab), IC50 was derived from data fit to Hill equation: Icompound/Icontrol=(100−A)/(1+([compound]/IC50)nH)+A, where IC50 is the concentration at which current inhibition is half-maximal, [compound] is the applied compound concentration, A is the fraction of current that is not blocked and nH is the Hill coefficient.

| IC50 [1] | Compound | IC50 [2] |
| --- | --- | --- |
| < 10 µM | Nc1nnc(N2CCC([C@@H](N)c3cc(Cl)c(Cl)cc3O)CC2)s1 [Compound 151, 2-[(R)-amino[1-(5-amino-1,3,4-thiadiazol-2-yl)piperidin-4-yl]methyl]-4,5-dichlorophenol Trifluoroacetic Acid] | < 30 µM |
| < 10 µM | N[C@@H](c1cc(Cl)c(Cl)cc1O)C1CCN(C(=O)c2nnc[nH]2)CC1 [Compound 152, (R)-(4-(amino(4,5-dichloro-2-hydroxyphenyl)methyl)piperidin-1-yl)(1H-1,2,4-triazol-3-yl)methanone trifluoroacetic acid] | > 30 µM |
| < 0.5 µM | Cc1[nH]ncc1C(=O)N1CCC([C@@H](N)c2cc(Cl)c(Cl)cc2O)CC1 [Compound 153, 2-[(R)-amino[1-(3-methyl-1H-pyrazole-4-carbonyl)piperidin-4-yl]methyl]-4,5-dichlorophenol trifluoroacetic acid] | > 30 µM |
| < 10 µM | N[C@@H](c1cc(Cl)c(Cl)cc1O)C1CCN(c2ccn[nH]2)CC1 [Compound 154, 2-[(R)-amino[1-(1H-pyrazol-3-yl)piperidin-4-yl]methyl]-4,5-dichlorophenol Trifluoroacetic Acid] | > 30 µM |
| < 10 µM | Nc1nnc(C(=O)N2CCC([C@@H](N)c3cc(Cl)c(Cl)cc3O)CC2)o1 [Compound 155, 2-[(R)-amino[1-(5-amino-1,3,4-oxadiazole-2-carbonyl)piperidin-4-yl]methyl]-4,5-dichlorophenol trifluoroacetic acid] | > 30 µM |
| < 10 µM | CC(C)C(N)C(=O)N1CCC([C@@H](N)c2cc(Cl)c(Cl)cc2O)CC1 (stereo partly drawn) [Compound 156, 2-amino-1-[4-[(R)-amino(4,5-dichloro-2-hydroxyphenyl)methyl]piperidin-1-yl]-3-methylbutan-1-one trifluoroacetic acid] | > 30 µM |
| < 0.5 µM | N[C@@H](c1cc(Cl)c(Cl)cc1O)C1CCN(C(=O)c2cn[nH]n2)CC1 [Compound 157, 2-[(R)-amino[1-(1H-1,2,3-triazole-4-carbonyl)piperidin-4-yl]methyl]-4,5-dichlorophenol trifluoroacetic acid] | > 30 µM |
| < 10 µM | N[C@@H](c1cc(Cl)c(Cl)cc1O)C1CCN(S(=O)(=O)c2cn[nH]c2)CC1 [Compound 158, 2-[(R)-amino[1-(1H-pyrazole-4-sulfonyl)piperidin-4-yl]methyl]-4,5-dichlorophenol Trifluoroacetic Acid] | < 30 µM |
| < 10 µM | Cc1n[nH]c(C)c1C(=O)N1CCC([C@@H](N)c2cc(Cl)c(Cl)cc2O)CC1 [Compound 159, 2-[(R)-amino[1-(3,5-dimethyl-1H-pyrazole-4-carbonyl)piperidin-4-yl]methyl]-4,5-dichlorophenol] | > 30 µM |
| < 10 µM | N[C@@H](c1cc(Cl)c(Cl)cc1O)C1CCN(C(=O)C23CC(O)(C2)C3)CC1 [Compound 160, 3-[4-[(R)-amino(4,5-dichloro-2-hydroxyphenyl)methyl]piperidine-1-carbonyl]bicyclo [1.1.1]pentan-1-ol trifluoroacetic acid] | < 30 µM |
| < 10 µM | N[C@@H](c1cc(Cl)c(Cl)cc1O)C1CCN(C(=O)C2CC(F)(F)C2)CC1 [Compound 161, 2-[(R)-amino[1-(3,3-difluorocyclo-butanecarbonyl)piperidin-4-yl]methyl]-4,5-dichlorophenol] | < 30 µM |
| < 0.5 µM | N[C@@H](c1cc(Cl)c(Cl)cc1O)C1CCN(C(=O)Cc2cn[nH]c2)CC1 [Compound 162, 1-[4-[(R)-amino(4,5-dichloro-2-hydroxyphenyl)methyl]piperidin-1-yl]-2-(1H-pyrazol-4-yl)ethan-1-one trifluoroacetic acid] | > 30 µM |
| < 10 µM | CC1(O)CC(C(=O)N2CCC([C@@H](N)c3cc(Cl)c(Cl)cc3O)CC2)C1 (stereo partly drawn) [Compound 163, 2-[(R)-amino[1-(3-hydroxy-3-methylcyclo-butanecarbonyl)piperidin-4-yl]methyl]-4,5-dichlorophenol] | > 30 µM |
| < 10 µM | N[C@@H](c1cc(Cl)c(Cl)cc1O)C1CCN(C(=O)c2cnc[nH]2)CC1 [Compound 164, 2-[(R)-amino[1-(1H-imidazole-4-carbonyl)piperidin-4-yl]methyl]-4,5-dichlorophenol formic acid] | > 30 µM |
| < 0.5 µM | N[C@@H](c1cc(Cl)c(Cl)cc1O)C1CCN(C(=O)[C@H]2CCC(=O)N2)CC1 [Compound 165, (5R)-5-[4-[(R)-amino(4,5-dichloro-2-hydroxyphenyl)methyl]piperidine-1-carbonyl] pyrrolidin-2-one trifluoroacetic acid] | > 30 µM |
| < 10 µM | N[C@@H](c1cc(Cl)c(Cl)cc1O)C1CCN(C(=O)[C@@H]2CCC(=O)N2)CC1 [Compound 166, (5S)-5-[4-[(R)-amino(4,5-dichloro-2-hydroxyphenyl)methyl]piperidine-1-carbonyl] pyrrolidin-2-one trifluoroacetic acid] | > 30 µM |
| < 0.5 µM | N[C@@H](CO)C(=O)N1CCC([C@@H](N)c2cc(Cl)c(Cl)cc2O)CC1 [Compound 167, (2S)-2-amino-1-[4-[(R)-amino(4,5-dichloro-2-hydroxyphenyl)methyl]piperidin-1-yl]-3-hydroxypropan-1-one] | > 30 µM |
| < 0.5 µM | CO[C@H](CO)C(=O)N1CCC([C@@H](N)c2cc(Cl)c(Cl)cc2O)CC1 [Compound 168, (2R)-1-[4-[(R)-amino(4,5-dichloro-2-hydroxyphenyl)methyl]piperidin-1-yl]-3-hydroxy-2-methoxypropan-1-one trifluoroacetic acid] | > 30 µM |
| < 10 µM | N[C@@H](c1cc(Cl)c(Cl)cc1O)C1CCN(C(=O)[C@H]2COCCO2)CC1 [Compound 169, 2-[(R)-amino([1-[(2R)-1,4-dioxane-2-carbonyl]piperidin-4-yl])methyl]-4,5-dichlorophenol trifluoroacetic acid] | < 30 µM |
| < 10 µM | N[C@@H](c1cc(Cl)c(Cl)cc1O)C1CCN(C(=O)[C@@H]2COCCO2)CC1 [Compound 170, 2-[(R)-amino([1-[(2S)-1,4-dioxane-2-carbonyl]piperidin-4-yl])methyl]-4,5-dichlorophenol trifluoroacetic acid] | < 30 µM |
| < 0.5 µM | N[C@H](CO)C(=O)N1CCC([C@@H](N)c2cc(Cl)c(Cl)cc2O)CC1 [Compound 171, (2R)-2-amino-1-[4-[(R)-amino(4,5-dichloro-2-hydroxyphenyl)methyl]piperidin-1-yl]-3-hydroxypropan-1-one] | > 30 µM |
| < 10 µM | N[C@@H](c1cc(Cl)c(Cl)cc1O)C1CCN(C(=O)C2CCNC(=O)C2)CC1 (stereo partly drawn) [Compound 172, 4-[4-[(R)-amino(4,5-dichloro-2-hydroxyphenyl)methyl]piperidine-1-carbonyl] piperidin-2-one trifluoroacetic acid] | > 30 µM |
| < 0.5 µM | C[C@H](O)[C@@H](N)C(=O)N1CCC([C@@H](N)c2cc(Cl)c(Cl)cc2O)CC1 [Compound 173, (2R,3S)-2-amino-1-(4-((R)-amino(4,5-dichloro-2-hydroxyphenyl)methyl)piperidin-1-yl)-3-hydroxybutan-1-one bis (trifluoroacetic acid)] | > 30 µM |
| < 10 µM | C[C@@H](O)[C@H](N)C(=O)N1CCC([C@@H](N)c2cc(Cl)c(Cl)cc2O)CC1 [Compound 174, (2S,3R)-2-amino-1-[4-[(R)-amino(4,5-dichloro-2-hydroxyphenyl)methyl]piperidin-1-yl]-3-hydroxybutan-1-one bis (trifluoroacetic acid)] | > 30 µM |
| < 0.5 µM | C[C@H](O)[C@H](N)C(=O)N1CCC([C@@H](N)c2cc(Cl)c(Cl)cc2O)CC1 [Compound 175, (2S,3S)-2-amino-1-[4-[(R)-amino(4,5-dichloro-2-hydroxyphenyl)methyl]piperidin-1-yl]-3-hydroxybutan-1-one bis trifluoroacetic acid] | > 30 µM |
| < 10 µM | N[C@@H](c1cc(Cl)c(Cl)cc1O)C1CCN(C(=O)c2cc(=O)[nH]cn2)CC1 [Compound 176, (R)-(4-(amino (4,5-dichloro-2-hydroxyphenyl)methyl)piperidin-1-yl)(6-hydroxy-pyrimidin-4-yl)methanone trifluoroacetic acid] | > 30 µM |
| < 0.5 µM | N[C@@H](c1cc(Cl)c(Cl)cc1O)C1CCN(C(=O)c2cccc(=O)[nH]2)CC1 [Compound 178, (R)-6-(4-(amino(4,5-dichloro-2-hydroxyphenyl)methyl)piperidine-1-carbonyl) pyridin-2(1H)-one formic acid] | > 30 µM |
| < 0.5 µM | N[C@@H](c1cc(Cl)c(Cl)cc1O)C1CCN(c2cc[nH]c(=O)c2)CC1 [Compound 180, 4-[4-[(R)-amino(4,5-dichloro-2-hydroxyphenyl)methyl]piperidin-1-yl]-1,2-dihydropyridin-2-one Trifluoroacetic Acid] | > 30 µM |
| < 0.5 µM | COC[C@H](O)C(=O)N1CCC([C@@H](N)c2cc(Cl)c(Cl)cc2O)CC1 [Compound 181, (2S)-1-[4-[(R)-amino(4,5-dichloro-2-hydroxyphenyl)methyl]piperidin-1-yl]-2-hydroxy-3-methoxypropan-1-one trifluoroacetic acid] | > 30 µM |
| < 0.5 µM | Nc1nc(N2CCC([C@@H](N)c3cc(Cl)c(Cl)cc3O)CC2)no1 [Compound 183, 2-[(R)-amino[1-(5-amino-1,2,4-oxadiazol-3-yl)piperidin-4-yl]methyl]-4,5-dichlorophenol] | < 30 µM |
